Data reported in patent publication US20170152226A1, “FUNCTIONALISED AND SUBSTITUTED INDOLES AS ANTI-CANCER AGENTS” (Novogen Ltd., priority 2014, published 2017).

What was measured:
[1] = test system: IFN-γ; assay: Inhibition of cytokine release from PBMCs (HTRF); type: cell-based; conditions: PBMC, human PBMCs, PMA and ionomycin stimulated
Experimental: (§1) The ability of compounds 3507, 3520, 3534 and 3538 to inhibit the release of cytokines TNF-α, IFN-γ, IL-6, IL-21, IL-17A and IL-23 was evaluated in vitro (Tables 4 and 5). Briefly, human peripheral blood mononuclear cells (PBMCs) were isolated from human peripheral blood by Histopaque density gradient centrifugation. The freshly isolated PBMCs were seeded at 50,000 cells/well in a 96-well half area plate. PBMCs were dosed with the test compounds (at 10 μM, 1 μM and 0.1 μM) and then incubated at 37° C. and 5% CO2 for 2 hours. To stimulate release of the cytokines IFN-γ, IL-21, IL-17A and IL-23, the PBMCs were treated with 50 ng/mL of phorbol 12-myristate 13-acetate (PMA) and 1 μg/mL of ionomycin and to stimulate the release of TNF-α and IL-6, PBMCs were treated with 100 ng/mL of lipopolysaccharide (LPS) from gram-negative bacteria. The PBMCs were then incubated at 37° C. and 5% CO2 for a further 6 hours and the cell supernatant was collected and a Homogenous Time Resolved Fluorescence (HTRF) assay was carried out following the manufacturer's instructions. Cytokine release from the PBMCs was captured using a Perkin Elmer ENVISION 2104 microplate reader set at 615 nm and 665 nm respectively.

[2] = test system: IL-21; assay: Inhibition of cytokine release from PBMCs (HTRF); type: cell-based; conditions: PBMC, human PBMCs, PMA and ionomycin stimulated
Experimental: as §1

[3] = test system: TNF-α; assay: Inhibition of cytokine release from PBMCs (HTRF); type: cell-based; conditions: PBMC, human PBMCs, LPS stimulated
Experimental: as §1

[4] = test system: IL-6; assay: Inhibition of cytokine release from PBMCs (HTRF); type: cell-based; conditions: PBMC, human PBMCs, LPS stimulated
Experimental: as §1

[5] = test system: IL-23; assay: Inhibition of cytokine release from PBMCs (HTRF); type: cell-based; conditions: PBMC, human PBMCs, PMA and ionomycin stimulated
Experimental: as §1

[6] = test system: IL-17A; assay: Inhibition of cytokine release from PBMCs (HTRF); type: cell-based; conditions: PBMC, human PBMCs, PMA and ionomycin stimulated
Experimental: as §1

[7] = test system: D20; assay: Anti-proliferative activity, MTS viability assay; type: cell-based; conditions: 72 hours exposure, read-out: IC50 Melanoma D20
Experimental: (§2) The anti-proliferative activity of compound 3507 was further evaluated in cell lines representative of melanoma, prostate cancer, leukaemia and neuroblastoma. Cell viability after 72 hours exposure to increasing concentrations of compound 3507 was measured using an MTS viability assay. Cell viability was normalized to control (vehicle alone) and dose-response curves, and relative inhibitory concentration (IC50) values were determined using GraphPad Prism 6.

[8] = test system: P4E6; assay: Anti-proliferative activity, MTS viability assay; type: cell-based; conditions: 72 hours exposure, read-out: IC50 Prostate P4E6
Experimental: as §2

[9] = test system: CHLA-90; assay: Anti-proliferative activity, MTS viability assay; type: cell-based; conditions: 72 hours exposure, read-out: IC50 Neuroblastoma CHLA-90
Experimental: as §2

[10] = test system: K562; assay: Anti-proliferative activity, MTS viability assay; type: cell-based; conditions: Homo sapiens, 72 hours exposure, read-out: IC50 Leukemia K562
Experimental: as §2

[11] = test system: LNCaP; assay: Anti-proliferative activity, MTS viability assay; type: cell-based; conditions: Homo sapiens, 72 hours exposure, read-out: IC50 Prostate LNCaP
Experimental: as §2

[12] = test system: MM415; assay: Anti-proliferative activity, MTS viability assay; type: cell-based; conditions: 72 hours exposure, read-out: IC50 Melanoma MM415
Experimental: as §2

[13] = test system: CHLA20 tumours; assay: CHLA20 neuroblastoma xenograft model; type: in vivo; conditions: 150 mg/kg IP daily, 18 days
Experimental: FIG. 4: Compound 3507/30% w/v Dexolve-7 was administered IP daily at 150 mg/kg for 18 days in a flank xenograft model of neuroblastoma (CHLA-20). Tumour volume was measured every 2-3 days.
The in vivo efficacy of compound 3507 was evaluated in the CHLA20 neuroblastoma xenograft model. CHLA20 tumours were established in athymic nude mice by injecting 1.0×10^7 tumour cells subcutaneously in the right flank. Dosing of animals commenced when tumour volume reached ˜200-400 mm^3. Animals (˜n=5+) were randomly divided into treatment and control groups. Compound 3507 was dosed daily by intraperotineal (IP) injection at 150 mg/kg in 30% w/v Captisol (a cyclodextrin-containing formulation).

Cc1c(C)n(CCCN2CCN(C)CC2)c2ccc(Oc3cccc(C(=O)N4CCN(CCc5ccc(F)cc5)CC4)c3)cc12 [Compound 3507, (3-((2,3-dimethyl-1-(3-(4-methylpiperazin-1-yl)propyl)-1H-indol-5-yl)oxy)phenyl)(4-(4-fluorophenethyl)piperazin-1-yl)methanone]
inhibition at 0.1 µM ([1]; 0.1 μM): 16%
inhibition at 1 µM ([1]; 1 μM): 42%
inhibition at 10 µM ([1]; 10 μM): 77%
inhibition at 0.1 µM ([2]; 0.1 μM): -6%
inhibition at 1 µM ([2]; 1 μM): 5%
inhibition at 10 µM ([2]; 10 μM): 19%
inhibition at 0.1 µM ([3]; 0.1 μM): 52%
inhibition at 1 µM ([3]; 1 μM): 68%
inhibition at 10 µM ([3]; 10 μM): 90%
inhibition at 0.1 µM ([4]; 0.1 μM): -9%
inhibition at 1 µM ([4]; 1 μM): 21%
inhibition at 10 µM ([4]; 10 μM): 68%
inhibition at 0.1 µM ([5]; 0.1 μM): -7%
inhibition at 1 µM ([5]; 1 μM): 0%
inhibition at 10 µM ([5]; 10 μM): 20%
inhibition at 0.1 µM ([6]; 0.1 μM): 2%
inhibition at 1 µM ([6]; 1 μM): 4%
inhibition at 10 µM ([6]; 10 μM): 13%
IC50 [7]: 5010 nM
IC50 [8]: 870 nM
IC50 [9]: 4240 nM
IC50 [10]: 950 nM
IC50 [11]: 590 nM
IC50 [12]: 4670 nM
tolerability [13]: well tolerated
